One may read the IC50 as the concentration needed to halve the response being measured.

This is an account of results in patent US7427615B2, “3-substituted-4-pyrimidone derivatives” (Mitsubishi Pharma Corporation, priority 2001, dated 2008).

T1 sequence (A0A3Q1MT31 1-419): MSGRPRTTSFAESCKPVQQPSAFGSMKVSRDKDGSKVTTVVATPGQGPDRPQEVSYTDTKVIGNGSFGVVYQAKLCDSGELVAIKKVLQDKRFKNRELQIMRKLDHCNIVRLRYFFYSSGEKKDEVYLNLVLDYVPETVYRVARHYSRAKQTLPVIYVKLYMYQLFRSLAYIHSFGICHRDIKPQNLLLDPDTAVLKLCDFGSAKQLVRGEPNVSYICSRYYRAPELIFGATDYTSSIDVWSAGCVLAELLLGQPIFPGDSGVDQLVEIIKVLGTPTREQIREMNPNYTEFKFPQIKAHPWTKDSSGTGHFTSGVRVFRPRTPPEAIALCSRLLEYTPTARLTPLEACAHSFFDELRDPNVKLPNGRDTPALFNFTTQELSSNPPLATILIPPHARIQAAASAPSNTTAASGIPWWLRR

The assay addresses T1, bovine cerebral TPK1 (Bos taurus, UniProt A0A3Q1MT31).
T1 construct: from tissue; host or cells: bovine brain (cerebrum)
The experiment in a line: Inhibitory activity against P-GS1 phosphorylation by bovine cerebral TPK1. The assay is classed as biochemical. To be noted: 41.7 μM [γ-32P]ATP, 25° C., 2 hours, pH 6.5. The method, then: Test Example: Inhibitory activity of the medicament of the present invention against P-GS1 phosphorylation by bovine cerebral TPK1
A mixture containing 100 mM MES-sodium hydroxide (pH 6.5), 1 mM magnesium acetate, 0.5 mM EGTA, 5 mM β-mercaptoethanol, 0.02% Tween 20, 10% glycerol, 12 μg/ml P-GS1, 41.7 μM [Υ-^32P] ATP (68 kBq/ml), bovine cerebral TPK1 and a compound shown in Table (a final mixture contained 1.7% DMSO deriving from a solution of a test compound prepared in the presence of 10% DMSO) was used as a reaction system. The phosphorylation was started by adding ATP, and the reaction was conducted at 25° C. for 2 hours, and then stopped by adding 21% perchloric acid on ice cooling. The reaction mixture was centrifuged at 12,000 rpm for 5 minutes and adsorbed on P81 paper (Whatmann), and then the paper was washed four times with 75 mM phosphoric acid, three times with water and once with acetone. The paper was dried, and the residual radioactivity was measured using a liquid scintillation counter.
For `Cn1c(N2CCC(C(=O)c3ccccc3F)CC2)nc(-c2ccncc2)cc1=O` [D002], the IC50 is 23 nM.

In turn, `COc1ccc(-c2cccnc2)cc1C1CN(c2nc(-c3ccncc3)cc(=O)n2C)CCO1` (centres unmarked) [B256] displayed an IC50 of 1.1 nM.

As to `COc1ccccc1C1CN(c2nc(-c3ccncc3)cc(=O)n2C)CCO1` (centres unmarked) [B084], 1.1 nM corresponded to half-maximal inhibition (IC50).

For `COc1cc(F)ccc1C(=O)C1CCN(c2nc(-c3ccncc3)cc(=O)n2C)CC1` [D025], the IC50 worked out at 16 nM. This IC50 lies about 15-fold higher than the previous one.

The compound `Cc1ccccc1C1CN(c2nc(-c3ccncc3)cc(=O)n2C)CCO1` (centres unmarked) [B063] yielded an IC50 of 6 nM.

Compound `Cn1c(N2CCOC(c3ccc(F)c(F)c3)C2)nc(-c2ccncc2)cc1=O` (centres unmarked) [B257] came in with an IC50 of 67 nM.

As for `Cn1c(N2CCC(C(=O)c3ccc(Cl)cc3)CC2)nc(-c2ccncc2)cc1=O` [D009, 2-[4-(4-Chlorobenzoyl)piperidin-1-yl]-3-methyl-6-pyridin-4-yl-3H-pyrimidin-4-one], half-maximal inhibition (IC50) required 6 nM.

For the compound `Cn1c(NCC(=O)c2ccccc2)nc(-c2ccncc2)cc1=O` [A001, 3-methyl-2-(2-oxo-2-phenylethylamino)-6-pyridin-4-yl-3H-pyrimidin-4-one], the IC50 was determined as 8.9 nM.

With `Cn1c(N2CCC(C(=O)c3ccc(Cl)s3)CC2)nc(-c2ccncc2)cc1=O` [D021], the IC50 came out at 11 nM. This IC50 and that of the compound before are within 1.5-fold of each other.

The compound `COc1ccc(-c2cccc(CN3CCCC3)c2)cc1C1CN(c2nc(-c3ccncc3)cc(=O)n2C)CCO1` (centres unmarked) [B287] displayed an IC50 of 0.57 nM.

Turning to `COc1ccc([C@H]2CN(c3nc(-c4ccncc4)cc(=O)n3C)CCO2)cc1` [B079, (S)-2-[2-(4-Methoxyphenyl)morpholin-4-yl]-3-methyl-6-pyridin-4-yl-3H-pyrimidin-4-one], the IC50 was found to be 3.3 nM.

`Cn1c(N2CCC(C(=O)n3ccc4ccccc43)CC2)nc(-c2ccncc2)cc1=O` [D017] registered an IC50 of 10 nM.

In turn, `Cn1c(N2CCC(C(=O)c3ccc(F)c(F)c3)CC2)nc(-c2ccncc2)cc1=O` [D013] came in with a 50% inhibitory concentration (IC50) of 19 nM.

Regarding `Cn1c(N2CCC(C(=O)N3CCCc4ccccc43)CC2)nc(-c2ccncc2)cc1=O` [D018], the IC50 came out at 4.3 nM.

Consider `Cn1c(N2CCOC(C(=O)c3ccccc3)C2)nc(-c2ccncc2)cc1=O` (centres unmarked) [C101, 2-(2-benzoylmorpholin-4-yl)-3-methyl-6-pyridin-4-yl-3H-pyrimidin-4-one], for which half-maximal inhibition (IC50) required 3.5 nM.

On to `Cn1c(N2CCOC(c3cccc(N4CCCC4)c3)C2)nc(-c2ccncc2)cc1=O` (single isomer, unassigned) [B288], for which the IC50 is 40 nM.

Regarding `COc1cccc(C(=O)C2CCN(c3nc(-c4ccncc4)cc(=O)n3C)CC2)c1OC` [D011], the IC50 worked out at 11 nM.

Take `Cn1c(N2CCOC(C(=O)c3ccccc3)C2)nc(-c2ccncc2)cc1=O` (single isomer, unassigned) [C389]: the half-maximal inhibitory concentration (IC50) came to 34 nM.

As to `Cn1c(N2CCOC(CCc3ccccc3)C2)nc(-c2ccncc2)cc1=O` (centres unmarked) [B010], the IC50 came to 6 nM. This IC50 lies about 5.7-fold lower than the previous one.

As for `Cn1c(N2CCOC(c3cccc(N4CCCC4)c3)C2)nc(-c2ccncc2)cc1=O` (single isomer, unassigned) [B289], inhibition was half-maximal at 33 nM (IC50).

Consider `Cn1c(N2CCOC(c3ccccc3Br)C2)nc(-c2ccncc2)cc1=O` (centres unmarked) [B054], for which the IC50 was determined as 4 nM.

For the compound `Cn1c(NCC(=O)c2ccccc2F)nc(-c2ccncc2)cc1=O` [A002], the IC50 stood at 27 nM.

In turn, `COc1ccc(C(=O)C2CCN(c3nc(-c4ccncc4)cc(=O)n3C)CC2)cc1` [D007] came in with an IC50 of 18 nM.

`Cn1c(N2CCC(C(=O)c3ccc(F)cc3)CC2)nc(-c2ccncc2)cc1=O` [D004] came in with an IC50 of 15 nM.

The compound `COc1ccccc1[C@H]1CN(c2nc(-c3ccncc3)cc(=O)n2C)CCO1` [B085] came in with a concentration for half-maximal inhibition (IC50) of 1.4 nM.

Compound `Cn1c(N2CCCC(C(=O)Nc3ccccc3)C2)nc(-c2ccncc2)cc1=O` (centres unmarked) [C067, 1-(1-Methyl-6-oxo-4-pyridin-4-yl-1,6-dihydro-pyrimidine-2-yl)-piperidine-3-carboxanilide] displayed a concentration for half-maximal inhibition (IC50) of 72 nM.

Consider `Cn1c(N2CCO[C@@H](c3ccccc3F)C2)nc(-c2ccncc2)cc1=O` [B037], for which the IC50 amounted to 4.8 nM. This IC50 is about 15-fold lower than that of the compound before.

The compound `Cn1c(N2CCOC(C(=O)c3ccccc3)C2)nc(-c2ccncc2)cc1=O` (single isomer, unassigned) [C390] returned an IC50 of 1 nM.

As for `Cn1c(N2CCOC(c3cc(F)c(F)cc3Cl)C2)nc(-c2ccncc2)cc1=O` (centres unmarked) [B097], the IC50 is 2.8 nM. This IC50 is about 2.8-fold higher than that of the compound before.

Compound `COc1cc(F)ccc1[C@@H]1CN(c2nc(-c3ccncc3)cc(=O)n2C)CCO1` [B285] came in with an IC50 of 8.9 nM.

The compound `Cn1c(N2CCOC(c3cccc(Br)c3)C2)nc(-c2ccncc2)cc1=O` (centres unmarked) [B051] registered an IC50 of 1.9 nM.

Regarding `CCn1c(N2CCOC(c3c(OC)cccc3OC)C2)nc(-c2ccncc2)cc1=O` (centres unmarked) [B263], the IC50 is 1.2 nM.

As to `Cn1c(N2CCC(C(=O)c3ccc(-c4ccccc4)cc3)CC2)nc(-c2ccncc2)cc1=O` [D022], the IC50 is 7.8 nM. Compared with the last compound, the IC50 is about 6.5-fold higher.

`CC(C)Oc1ccc(C2CN(c3nc(-c4ccncc4)cc(=O)n3C)CCO2)cc1` (centres unmarked) [B122] gave an IC50 of 63 nM.

`Cn1c(N2CCC(C(=O)c3ccc(F)cc3F)CC2)nc(-c2ccncc2)cc1=O` [D012] had an IC50 of 19 nM.

`Cn1c(NCC(=O)c2cccc(Cl)c2)nc(-c2ccncc2)cc1=O` [A006]: half-maximal inhibition (IC50) required 13 nM.

For `Cn1c(N2CCOC(c3ccc(OCC4CC4)cc3)C2)nc(-c2ccncc2)cc1=O` (centres unmarked) [B128], the midpoint of inhibition, the IC50, lay at 30 nM.

`Cn1c(N2CCO[C@@H](c3c(Cl)cccc3Cl)C2)nc(-c2ccncc2)cc1=O` [B106] returned an IC50 of 1.4 nM.

The compound `COc1cc(OC(C)C)ccc1C1CN(c2nc(-c3ccncc3)cc(=O)n2C)CCO1` (centres unmarked) [B261] had a half-inhibitory concentration (IC50) of 1.3 nM.

The compound `Cn1c(N2CCC(C(=O)c3cccs3)CC2)nc(-c2ccncc2)cc1=O` [D014] came in with a half-maximal inhibitory concentration (IC50) of 20 nM.

`Cn1c(N2CCO[C@@H](c3ccccc3Cl)C2)nc(-c2ccncc2)cc1=O` [B046] registered a half-inhibitory concentration (IC50) of 8.3 nM.

The compound `Cn1c(N2CCC(C(=O)c3ccccc3-c3ccccc3)CC2)nc(-c2ccncc2)cc1=O` [D023] registered an IC50 of 13 nM.

Compound `Cn1c(N2CCC(C(=O)c3ccccc3)CC2)nc(-c2ccncc2)cc1=O` [D001, 2-(4-benzoylpiperidin-1-yl)-3-methyl-6-pyridin-4-yl-3H-pyrimidin-4-one] had a half-maximal inhibitory concentration (IC50) of 9 nM.

On to `Cn1c(N2CCO[C@@H](c3c(F)cccc3F)C2)nc(-c2ccncc2)cc1=O` [B110], for which the 50% inhibitory concentration (IC50) was 8.2 nM.

As to `Cn1c(N2CCO[C@H](c3c(Cl)cccc3Cl)C2)nc(-c2ccncc2)cc1=O` [B107], half-maximal inhibition (IC50) was put at 50 nM.

Take `Cn1c(N2CCOC(c3ccc(F)cc3Br)C2)nc(-c2ccncc2)cc1=O` (centres unmarked) [B100]: the half-maximal inhibitory concentration (IC50) worked out at 4.7 nM.

In turn, `CCOc1ccccc1C1CN(c2nc(-c3ccncc3)cc(=O)n2C)CCO1` (centres unmarked) [B087] gave an IC50 of 5 nM.

For the compound `COc1cccc(OC)c1[C@H]1CN(c2nc(-c3ccncc3)cc(=O)n2C)CCO1` [B103], it took 0.36 nM to reach half-maximal inhibition (IC50).

`Cn1c(N2CCOC(c3cccc(S(C)(=O)=O)c3)C2)nc(-c2ccncc2)cc1=O` (centres unmarked) [B130] showed an IC50 of 52.9 nM.

The compound `COc1cc(-c2ccccc2F)ccc1C1CN(c2nc(-c3ccncc3)cc(=O)n2C)CCO1` (centres unmarked) [B290] had an IC50 of 2 nM.

`COc1cc(F)ccc1C1CN(c2nc(-c3ccncc3)cc(=O)n2C)CCO1` (centres unmarked) [B091] showed an IC50 of 1.2 nM. Compared with the last compound, the IC50 is about 1.7-fold lower.

In the case of `Cn1c(N2CCC(C(=O)N3CCc4ccccc43)CC2)nc(-c2ccncc2)cc1=O` [D019], the IC50 amounted to 8.1 nM. Compared with the last compound, the IC50 is about 6.8-fold higher.

As for `Cn1c(N2CCC(C(=O)c3cccc4ccccc34)CC2)nc(-c2ccncc2)cc1=O` [D024], the midpoint of inhibition, the IC50, lay at 19 nM.

`Cn1c(N2CCOC(c3ccc(N4CCCC4)cc3)C2)nc(-c2ccncc2)cc1=O` (centres unmarked) [B140] came in with a concentration for half-maximal inhibition (IC50) of 8 nM.

In the case of `Cn1c(N2CCCC(C(=O)c3ccccc3)C2)nc(-c2ccncc2)cc1=O` (centres unmarked) [C001, 2-(3-Benzoylpiperidin-1-yl)-3-methyl-6-pyridin-4-yl-3H-pyrimidin-4-one], the half-maximal inhibitory concentration (IC50) was found to be 2.1 nM.

`Cn1c(N2CCOC(c3ccc(F)cc3Cl)C2)nc(-c2ccncc2)cc1=O` (centres unmarked) [B253] gave an IC50 of 15 nM.
